Laboratory results: US20230096663A1, “FARNESOID X RECEPTOR MODULATING COMPOUNDS AND METHODS OF USING THE SAME” (Inorbit Therapeutics AB, priority 2020, published 2023)
Read-outs that look alike come from different tables or passages of the source.

Legend:
[1] = tested on: HFHC fed male C57BL/6 mice; experiment: In-vivo efficacy in high fat high cholesterol diet (HFHC) fed male C57BL/6 mice; details: oral, 3 mg/kg BID, 3 mg/kg QD and 10 mg/kg BID, after 28 days
Description: C57BL/6J male mice were purchased at the age of 8 weeks. After an acclimation period of 1 week, animals were maintained on high fat high cholesterol diet (Research diets) with 60% kcal from fat plus 0.5% (w/w) extra cholesterol (Research diet, D02051401) for a period of 4 weeks. Age matched control animals (n=6) were maintained on normal chow. Mice were dosed with vehicle, test compounds and GW4064 morning (7.00 AM) and evening (5:00 PM) from day 0 to 27. At 28th day, animals were dosed at 7:00 AM and kept on fasting for next 4 hours before blood and tissues collection. Plasma samples separated from collected blood were stored at −20° C. immediately for estimation analysis. The samples were analyzed using the Siemens Dimension RxL Max Clinical chemistry analyzer.
Right liver lobe was used for the test compounds exposure, triglyceride and cholesterol estimation. Liver tissues were dissected, weighed and snap frozen and stored at −80° C. for further analysis of hepatic triglyceride, cholesterol and compound exposure. In brief, stored tissues were thawed to room temperature and triglycerides were extracted by homogenizing 25 mg of liver tissues in 1 ml of 5% Triton X100 (Lot No. 61K01741-Sigma Aldrich) in water. Homogenized tissues were slowly heated to 80° C. in water bath for 5 minutes. The samples were cooled down and again heated to solubilize all the triglycerides into solution. The samples were centrifuged for 5 minutes at 4000 RPM and supernatant was collected for quantification^3 using commercially available kit from ERBA (Lot No. B061832).
Homogenized samples were centrifuge at 13000 g for 10 minutes to remove insoluble material. The organic phase was separated into new tube and air dried at 50° C. to remove chloroform. Thereafter, samples were vacuumed for 30 minutes to remove residue organic solvent. Dried lipids were dissolved in 200 μL of cholesterol assay buffer (provided with Sigma cholesterol assay kit Lot No. B2J210603V), sonicated for 20 minutes and vortexed until mixture was homogenous as mentioned in kit protocol. Samples were diluted with cholesterol assay buffer at (1:10) ratio to fit in standard curve and finally 50 μL of diluted samples were used for the assay.
Compound levels were also measured in the plasma and liver to understand its distribution profile.

[2] = tested on: FXR related genes (BSEP, SHP) in primary human hepatocytes; experiment: Gene expression in human primary hepatocytes (BSEP, SHP); type: cell-based; details: 24 hours incubation
Description: The test compound was dissolved in buffer to give a 10 mM stock solution. The compound was serially diluted to the desired concentrations and then incubated with human primary hepatocytes for 24 hours at 37° C. in a CO2 incubator. After incubation, the media was removed and the RNA harvested using the Trizol-CHCl3 method and quantified using Nano drop. The RNA was then Reverse Transcribed to cDNA using a superscript vilo cDNA synthesis kit. The cDNA with respective Taqman primers, master mix are then amplified using quantitative RT-PCR system. […] The compounds of examples 2 and 3 upregulate FXR related and disease relevant genes on incubation with primary human hepatocytes. […] It is a uni-directional, ATP-dependent efflux transporter that plays an important role in the elimination of bile salts from the hepatocyte into the bile canaliculi for export into the gastrointestinal tract. FXR also induces the expression of small heterodimer partner (SHP) which controls a complex set of genes in multiple metabolic pathways. It reduces the expression of CYP7A1, a liver-specific enzyme that catalyzes the first and rate-limiting step in one of the two pathways for bile acid biosynthesis.

[3] = Compound exposure in plasma and liver of HFHC fed male mice; type: in vivo; details: C57BL/6J, mouse, oral

Structure (SMILES): Cc1cc(S(=O)[O-])cc2sc(N3[C@@H]4CC[C@H]3C[C@@H](OCc3c(-c5ccccc5OC(F)(F)F)noc3C3CC3)C4)nc12.[Na+] [Example 3, Sodium 2-(3-((5-cyclopropyl-3-(2-(trifluoromethoxy)phenyl)isoxazol-4-yl)methoxy)-8-azabicyclo[3.2.1]octan-8-yl)-4-methylbenzo[d]thiazole-6-sulfinate]
- Cholesterol levels in the liver [1]: reductions
- Cholesterol levels in the plasma [1]: reductions
- Liver triglycerides [1]: reductions
- Expression of FXR related and disease relevant genes (BSEP, SHP) [2]: upregulate
- concentration at 4 h ([3]; liver, 3 mg/kg, 3 mg/kg BID oral, 4 hours after last dose on day 28, read-out: Mean compound exposure, Liver): 88.9 ng/g
- concentration at 4 h ([3]; liver, 10 mg/kg, 10 mg/kg BID oral, 4 hours after last dose on day 28, read-out: Mean compound exposure, Liver): 198 ng/g
- concentration at 4 h ([3]; liver, 10 mg/kg, 10 mg/kg QD oral, 4 hours after last dose on day 28, read-out: Mean compound exposure, Liver): 176 ng/g
- concentration at 4 h ([3]; plasma, 3 mg/kg, 3 mg/kg BID oral, 4 hours after last dose on day 28, read-out: Mean compound exposure, Plasma): 3.7 ng/mL
- concentration at 4 h ([3]; plasma, 10 mg/kg, 10 mg/kg BID oral, 4 hours after last dose on day 28, read-out: Mean compound exposure, Plasma): 11.5 ng/mL
- concentration at 4 h ([3]; plasma, 10 mg/kg, 10 mg/kg QD oral, 4 hours after last dose on day 28, read-out: Mean compound exposure, Plasma): 5.9 ng/mL
